#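 96-well plates; 48 h exposure; 5 concentrations. Endpoints by linear interpolation between flanking doses. Not reached: highest tested concentration assigned. GI50 marks 50% less growth.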 Activity calls are given as the source filed them. No stated cut-off is given here; in the data, active = GI50 up to about 1.1 µM and inactive = higher.
# What was measured:
# Assay in all cases: inhibition of tumour cell growth, NCI panel, 48 h
# 786-0 = test system: 786-0
# A498 = test system: A498
# A549 = test system: A549
# ACHN = test system: ACHN
# CAKI-1 = test system: CAKI-1
# CCRF-CEM = test system: CCRF-CEM
# COLO 205 = test system: COLO 205
# DLD-1 = test system: DLD-1
# DMS-114 = test system: DMS-114
# DMS-273 = test system: DMS-273
# EKVX = test system: EKVX
# HCC 2998 = test system: HCC 2998
# HCT-116 = test system: HCT-116
# HL-60 = test system: HL-60
# HOP-18 = test system: HOP-18
# HOP-62 = test system: HOP-62
# HOP-92 = test system: HOP-92
# HT-29 = test system: HT-29
# IGROV-1 = test system: IGROV-1
# K562 = test system: K562
# KM-20L2 = test system: KM-20L2
# KM12 = test system: KM12
# LOX IMVI = test system: LOX IMVI
# LXFL 529 = test system: LXFL 529
# M14 = test system: M14
# M19-MEL = test system: M19-MEL
# Malme-3M = test system: Malme-3M
# NCI-H226 = test system: NCI-H226
# NCI-H23 = test system: NCI-H23
# NCI-H460 = test system: NCI-H460
# NCI-H522 = test system: NCI-H522
# OVCAR-3 = test system: OVCAR-3
# OVCAR-4 = test system: OVCAR-4
# OVCAR-5 = test system: OVCAR-5
# OVCAR-8 = test system: OVCAR-8
# RPMI-8226 = test system: RPMI-8226
# RXF 393 = test system: RXF 393
# RXF 631 = test system: RXF 631
# SF-268 = test system: SF-268
# SF-295 = test system: SF-295
# SF-539 = test system: SF-539
# SK-MEL-28 = test system: SK-MEL-28
# SK-MEL-5 = test system: SK-MEL-5
# SK-OV-3 = test system: SK-OV-3
# SN12C = test system: SN12C
# SNB-19 = test system: SNB-19
# SNB-75 = test system: SNB-75
# SNB-78 = test system: SNB-78
# SW-620 = test system: SW-620
# TK-10 = test system: TK-10
# U-251 = test system: U-251
# UACC-257 = test system: UACC-257
# UACC-62 = test system: UACC-62
# UO-31 = test system: UO-31
# XF498 = test system: XF498
# HCT-15 = test system: HCT-15
# MOLT-4 = test system: MOLT-4
# SK-MEL-2 = test system: SK-MEL-2
smiles,measurement,setting,value
COc1cc2c3c(c1OC)/C(=N/OS(=O)(=O)c1ccc(C)cc1)CC3N(S(=O)(=O)c1ccc(C)cc1)CC2 (centres undefined),GI50,786-0,> 100 µM (inactive)
same,GI50,A498,> 100 µM (inactive)
same,GI50,A549,> 100 µM (inactive)
same,GI50,ACHN,> 100 µM (inactive)
same,GI50,CAKI-1,> 100 µM (inactive)
same,GI50,CCRF-CEM,> 100 µM (inactive)
same,GI50,COLO 205,> 100 µM (inactive)
same,GI50,DLD-1,> 100 µM (inactive)
same,GI50,DMS-114,> 100 µM (inactive)
same,GI50,DMS-273,> 100 µM (inactive)
same,GI50,EKVX,> 100 µM (inactive)
same,GI50,HCC 2998,> 100 µM (inactive)
same,GI50,HCT-116,> 100 µM (inactive)
same,GI50,HL-60,> 100 µM (inactive)
same,GI50,HOP-18,> 100 µM (inactive)
same,GI50,HOP-62,> 100 µM (inactive)
same,GI50,HOP-92,> 100 µM (inactive)
same,GI50,HT-29,> 100 µM (inactive)
same,GI50,IGROV-1,> 100 µM (inactive)
same,GI50,K562,> 100 µM (inactive)
same,GI50,KM-20L2,> 100 µM (inactive)
same,GI50,KM12,> 100 µM (inactive)
same,GI50,LOX IMVI,> 100 µM (inactive)
same,GI50,LXFL 529,> 100 µM (inactive)
same,GI50,M14,> 100 µM (inactive)
same,GI50,M19-MEL,> 100 µM (inactive)
same,GI50,Malme-3M,> 100 µM (inactive)
same,GI50,NCI-H226,> 100 µM (inactive)
same,GI50,NCI-H23,> 100 µM (inactive)
same,GI50,NCI-H460,> 100 µM (inactive)
same,GI50,NCI-H522,> 100 µM (inactive)
same,GI50,OVCAR-3,> 100 µM (inactive)
same,GI50,OVCAR-4,> 100 µM (inactive)
same,GI50,OVCAR-5,> 100 µM (inactive)
same,GI50,OVCAR-8,93.3 µM (inactive)
same,GI50,RPMI-8226,> 100 µM (inactive)
same,GI50,RXF 393,53.5 µM (inactive)
same,GI50,RXF 631,66.1 µM (inactive)
same,GI50,SF-268,> 100 µM (inactive)
same,GI50,SF-295,> 100 µM (inactive)
same,GI50,SF-539,> 100 µM (inactive)
same,GI50,SK-MEL-28,> 100 µM (inactive)
same,GI50,SK-MEL-5,> 100 µM (inactive)
same,GI50,SK-OV-3,> 100 µM (inactive)
same,GI50,SN12C,> 100 µM (inactive)
same,GI50,SNB-19,> 100 µM (inactive)
same,GI50,SNB-75,70.5 µM (inactive)
same,GI50,SNB-78,41.7 µM (inactive)
same,GI50,SW-620,> 100 µM (inactive)
same,GI50,TK-10,> 100 µM (inactive)
same,GI50,U-251,> 100 µM (inactive)
same,GI50,UACC-257,> 100 µM (inactive)
same,GI50,UACC-62,> 100 µM (inactive)
same,GI50,UO-31,> 100 µM (inactive)
same,GI50,XF498,> 100 µM (inactive)
Cc1cc2c(=O)cc(-c3ccc(Cl)cc3)oc2c(C(=O)O)c1C,GI50,786-0,> 100 µM (inactive)
same,GI50,A549,> 100 µM (inactive)
same,GI50,ACHN,> 100 µM (inactive)
same,GI50,CAKI-1,> 100 µM (inactive)
same,GI50,CCRF-CEM,> 100 µM (inactive)
same,GI50,COLO 205,> 100 µM (inactive)
same,GI50,DLD-1,> 100 µM (inactive)
same,GI50,DMS-114,> 100 µM (inactive)
same,GI50,DMS-273,> 100 µM (inactive)
same,GI50,EKVX,> 100 µM (inactive)
same,GI50,HCT-116,> 100 µM (inactive)
same,GI50,HCT-15,> 100 µM
same,GI50,HOP-18,> 100 µM (inactive)
same,GI50,HT-29,> 100 µM (inactive)
same,GI50,IGROV-1,> 100 µM (inactive)
same,GI50,K562,> 100 µM (inactive)
same,GI50,KM-20L2,> 100 µM (inactive)
same,GI50,KM12,> 100 µM (inactive)
same,GI50,LOX IMVI,> 100 µM (inactive)
same,GI50,LXFL 529,> 100 µM (inactive)
same,GI50,M14,> 100 µM (inactive)
same,GI50,M19-MEL,> 100 µM (inactive)
same,GI50,MOLT-4,> 100 µM (inactive)
same,GI50,Malme-3M,> 100 µM (inactive)
same,GI50,NCI-H226,> 100 µM (inactive)
same,GI50,NCI-H23,> 100 µM (inactive)
same,GI50,NCI-H460,> 100 µM (inactive)
same,GI50,NCI-H522,29.5 µM (inactive)
same,GI50,OVCAR-3,> 100 µM (inactive)
same,GI50,OVCAR-4,> 100 µM (inactive)
same,GI50,OVCAR-5,> 100 µM (inactive)
same,GI50,OVCAR-8,> 100 µM (inactive)
same,GI50,RPMI-8226,> 100 µM (inactive)
same,GI50,RXF 393,> 100 µM (inactive)
same,GI50,RXF 631,> 100 µM (inactive)
same,GI50,SF-268,> 100 µM (inactive)
same,GI50,SF-295,> 100 µM (inactive)
same,GI50,SF-539,> 100 µM (inactive)
same,GI50,SK-MEL-28,> 100 µM (inactive)
same,GI50,SK-MEL-2,> 100 µM (inactive)
same,GI50,SK-MEL-5,> 100 µM (inactive)
same,GI50,SK-OV-3,> 100 µM (inactive)
same,GI50,SN12C,> 100 µM (inactive)
same,GI50,SNB-19,> 100 µM (inactive)
same,GI50,SNB-75,> 100 µM (inactive)
same,GI50,SNB-78,> 100 µM (inactive)
same,GI50,SW-620,> 100 µM (inactive)
same,GI50,TK-10,> 100 µM (inactive)
same,GI50,U-251,> 100 µM (inactive)
same,GI50,UACC-257,> 100 µM (inactive)
same,GI50,UACC-62,> 100 µM (inactive)
same,GI50,UO-31,> 100 µM (inactive)
same,GI50,XF498,> 100 µM (inactive)
c1ccc2c(CN3CCC(C4CCN(Cc5cccc6ccccc56)CC4)CC3)cccc2c1,GI50,786-0,16 µM (inactive)
same,GI50,A549,38.3 µM (inactive)
same,GI50,ACHN,36.1 µM (inactive)
same,GI50,COLO 205,1.72 µM (inactive)
same,GI50,DLD-1,2.09 µM (inactive)
same,GI50,DMS-114,2.64 µM (inactive)
same,GI50,DMS-273,6.73 µM (inactive)
same,GI50,HCC 2998,1.09 µM (active)
same,GI50,HL-60,1.98 µM (inactive)
same,GI50,HOP-18,40.1 µM (inactive)
same,GI50,HOP-62,14.7 µM (inactive)
same,GI50,HT-29,3.11 µM (inactive)
same,GI50,K562,1.53 µM (inactive)
same,GI50,KM-20L2,2.81 µM (inactive)
same,GI50,LXFL 529,5.74 µM (inactive)
same,GI50,M14,1.92 µM (inactive)
same,GI50,M19-MEL,6.64 µM (inactive)
same,GI50,MOLT-4,5.7 µM (inactive)
same,GI50,Malme-3M,2.4 µM (inactive)
same,GI50,NCI-H460,19 µM (inactive)
same,GI50,NCI-H522,12.9 µM (inactive)
same,GI50,OVCAR-3,39.7 µM (inactive)
same,GI50,RPMI-8226,3.66 µM (inactive)
same,GI50,RXF 393,11.9 µM (inactive)
same,GI50,RXF 631,12.2 µM (inactive)
same,GI50,SF-295,7.64 µM (inactive)
same,GI50,SK-MEL-2,6.21 µM (inactive)
same,GI50,SK-MEL-5,4.22 µM (inactive)
same,GI50,SK-OV-3,21.1 µM (inactive)
same,GI50,SN12C,> 63 µM (inactive)
same,GI50,SNB-78,23.7 µM (inactive)
same,GI50,TK-10,17.7 µM (inactive)
same,GI50,U-251,11.3 µM (inactive)
same,GI50,UACC-257,2.1 µM (inactive)
same,GI50,UACC-62,5.64 µM (inactive)
same,GI50,XF498,4.75 µM (inactive)

# — ChEMBL document CHEMBL1201862, “PubChem BioAssay data set” (2004)
